Assay results reported in patent publication US7674793B2, “Tricyclic dihydropyrazines as potassium channel openers” (Janssen Pharmaceutica NV, priority 2006, dated 2010).

Target: T1, KATP channels (Homo sapiens, UniProt O60706+Q14654)
T1 construct: TE671 human medulloblastoma cells were obtained from ATCC; host or cells: TE671 human medulloblastoma cells
Assay: Potassium Channel Assay (FLIPR membrane potential dye, TE671 cells)
Assay type: cell-based
Set-up: key: Active: A compound was designated as active if it produced greater than or equal to 10% response at 30 μM; Inactive: A compound was designated as inactive if it produced less than 10% response at 30 μM
Conditions: percent response at 30 μM; TE671 human medulloblastoma cells; hyperpolarization seen as decrease in fluorescent intensity, room temperature
Method: TE671 human medulloblastoma cells were obtained from ATCC and grown in Dulbecco's modified Eagle's medium (DMEM) supplemented with 10% fetal bovine serum, 100 U/ml penicillin and 100 U/ml streptomycine.
The day before testing, the cells were plated in black 96-well plates at 50 K/well. On the day of testing, the growth media was removed, then 100 μl of FLIPR buffer (20 mM HEPES, 120 mM NaCl, 2 mM KCl, 2 mM CaCl2, 1 mM MgCl2, 5 mM Glucose) and 100 μl of Membrane Potential Assay Dye (Molecular Devices) dissolved in FLIPR buffer were added to each well. The cells were incubated at room temperature for 15 to 30 min.
The effect of test compounds on KATP channels were evaluated on a fluorometric imaging plate reader (FLIPR, Molecular Devices) at room temperature. After a baseline period, 50 μl of 5× stock solution of test compound prepared in FLIPR buffer was added and fluorescent change was monitored for 3 minutes. After this reading, glyburide, a KATP channel blocker, was added to a final concentration of 5 μM to check the specificity of the test compound as a KATP channel openers. Hyperpolarization resulting from KATP channel opening was observed as a decrease in fluorescent intensity.
Representative compounds of the present invention were tested according to the procedure described above, with results as listed in Table BIO1 below. Test compound activity was determined as the percent. A compound was designated as active if it produced greater than or equal to 10% response at 30 μM.

T1 sequence (O60706 1-1549 isoform O60706-2): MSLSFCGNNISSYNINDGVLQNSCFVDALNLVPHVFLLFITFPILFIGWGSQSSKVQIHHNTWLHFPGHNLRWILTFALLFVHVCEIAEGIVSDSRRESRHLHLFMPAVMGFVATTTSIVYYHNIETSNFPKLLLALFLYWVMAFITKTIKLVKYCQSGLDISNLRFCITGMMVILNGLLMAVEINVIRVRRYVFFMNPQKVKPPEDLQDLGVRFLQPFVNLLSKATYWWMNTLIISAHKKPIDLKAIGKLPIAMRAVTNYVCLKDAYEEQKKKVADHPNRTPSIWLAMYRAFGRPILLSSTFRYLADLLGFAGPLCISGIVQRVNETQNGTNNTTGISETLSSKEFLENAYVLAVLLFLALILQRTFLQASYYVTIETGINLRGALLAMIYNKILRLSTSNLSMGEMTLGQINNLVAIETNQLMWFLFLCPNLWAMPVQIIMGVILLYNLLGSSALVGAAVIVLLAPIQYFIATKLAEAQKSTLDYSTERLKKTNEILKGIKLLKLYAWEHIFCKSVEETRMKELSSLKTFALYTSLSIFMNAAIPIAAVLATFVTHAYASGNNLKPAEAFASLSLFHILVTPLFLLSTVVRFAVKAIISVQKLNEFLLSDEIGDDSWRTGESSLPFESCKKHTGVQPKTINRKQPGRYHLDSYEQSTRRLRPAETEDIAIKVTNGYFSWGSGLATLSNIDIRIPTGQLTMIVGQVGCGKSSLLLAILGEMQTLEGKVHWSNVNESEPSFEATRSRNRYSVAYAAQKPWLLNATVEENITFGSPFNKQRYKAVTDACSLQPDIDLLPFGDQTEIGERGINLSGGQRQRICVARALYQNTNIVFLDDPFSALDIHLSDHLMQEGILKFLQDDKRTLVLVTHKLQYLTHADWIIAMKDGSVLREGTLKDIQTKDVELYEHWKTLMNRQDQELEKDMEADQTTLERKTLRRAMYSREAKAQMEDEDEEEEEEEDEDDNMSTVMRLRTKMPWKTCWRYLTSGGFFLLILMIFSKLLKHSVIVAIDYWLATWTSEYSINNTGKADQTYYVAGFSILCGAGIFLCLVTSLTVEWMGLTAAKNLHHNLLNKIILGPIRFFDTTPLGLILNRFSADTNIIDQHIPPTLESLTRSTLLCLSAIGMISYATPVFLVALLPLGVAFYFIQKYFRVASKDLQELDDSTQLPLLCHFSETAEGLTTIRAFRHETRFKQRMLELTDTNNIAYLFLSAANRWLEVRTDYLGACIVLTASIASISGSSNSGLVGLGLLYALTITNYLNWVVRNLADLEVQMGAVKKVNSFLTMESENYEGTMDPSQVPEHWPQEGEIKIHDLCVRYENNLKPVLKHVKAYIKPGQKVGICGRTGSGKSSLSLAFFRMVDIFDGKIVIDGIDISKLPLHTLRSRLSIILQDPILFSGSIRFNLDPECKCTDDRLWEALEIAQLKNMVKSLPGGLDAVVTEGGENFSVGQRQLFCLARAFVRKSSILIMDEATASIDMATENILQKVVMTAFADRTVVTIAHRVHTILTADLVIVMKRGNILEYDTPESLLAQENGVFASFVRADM
T1 sequence (Q14654 whole entry): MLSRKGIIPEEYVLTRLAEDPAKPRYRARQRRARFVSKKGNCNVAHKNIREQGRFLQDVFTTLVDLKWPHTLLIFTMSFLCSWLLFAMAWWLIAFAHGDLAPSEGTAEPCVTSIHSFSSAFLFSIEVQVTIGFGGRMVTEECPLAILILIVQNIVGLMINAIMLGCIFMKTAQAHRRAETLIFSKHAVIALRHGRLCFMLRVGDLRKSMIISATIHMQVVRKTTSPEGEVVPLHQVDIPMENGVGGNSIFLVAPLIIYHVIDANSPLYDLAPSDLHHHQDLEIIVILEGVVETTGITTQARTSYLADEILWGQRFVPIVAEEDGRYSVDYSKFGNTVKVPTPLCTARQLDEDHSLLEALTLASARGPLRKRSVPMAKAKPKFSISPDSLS

**Q.** With `O=C1CCCC(O)=C1N(C1=C(O)CCCC1=O)c1ccc(F)c(F)c1` [compound 2] as the compound, how does the Response read?
**A.** The Response was “Active”.

**Q.** How did the Response turn out when `N#Cc1cccc(N(C2=C(O)CCC2=O)C2=C(O)CCC2=O)c1` [compound 5] was run?
**A.** The Response was “Active”.

**Q.** For `O=C1CCCC(O)=C1N(C1=C(O)CCCC1=O)c1cccc(I)c1` [compound 3], which Response is on record?
**A.** The Response was “Active”.
